{"source": "paper PMC13108699", "about": "“Mass balance and metabolite profiling of ^14C-Zalunfiban in humans following single-dose subcutaneous administration” (Xenobiotica; the fate of foreign compounds in biological …, 2025)", "test": "Whole blood zalunfiban and M1 concentrations (LC-MS/MS) and non-compartmental PK, phase 1 mass balance study", "type": "in vivo, human", "conditions": "for Cmax / Tmax / AUC(0-inf) / AUC(0-t) / k el / Vd/F / half-life: male, human, whole blood; for AUC(0-inf): read-out: AUC0-inf, whole blood zalunfiban; for AUC(0-t): read-out: AUC0-last, whole blood zalunfiban; for k el: read-out: Kel, whole blood zalunfiban (converted); for Vd/F: read-out: Vz/F, whole blood zalunfiban; for half-life: read-out: t1/2, whole blood zalunfiban (converted)", "text": "This was a Phase 1, single-centre, open-label, non-controlled, mass balance and metabolite profiling study of ^14C-radiolabeled zalunfiban in health male volunteers (NCT04284995). The planned participant enrolment size was 8, with 2 additional alternate participants available on the morning of dosing. Following a 28-day screening period, all eligible participants were admitted to the research unit the evening before dosing. After fasting overnight, participants completed a standard breakfast prior to dosing on study day 1. After dosing, subjects fasted for 4 h. Fluids were permitted ad libitum starting 1-hour after dosing. The investigational product (IP) was injected SC on study day 1 and participants were housed for 11 days, which is past the final 240-hour sampling time, and then discharged following final evaluation. The clinical study was conducted at the Pharmaron Clinical Pharmacology Centre (Baltimore, MD) and the study protocol, consent forms and regulatory documents were reviewed and approved by the Advarra Institutional Review Board (Columbia, MD).\nAll participants received the same fixed mass dose of SC 9.5 mg ^14C-zalunfiban (5 μCi), in 0.5 mL of formulation solution. This zalunfiban dose was chosen to both ensure participant safety and to make certain the study results were clinically relevant. For the latter, by strict inclusion of participants with a body weight within the range of 73–99 kg, the zalunfiban doses were no higher than the highest administered in the currently ongoing Phase 3 study, which includes three groups of 0.110 mg/kg zalunfiban, 0.130 mg/kg zalunfiban, and placebo ([NIH 2025]). The ^14C radiolabel dose of 5 μCi presented minimal radiation risk to healthy subjects while providing a high likelihood of meeting the study objectives.\nSerial blood samples were collected to determine zalunfiban and its major metabolite des-gly-zalunfiban (M1) whole blood concentrations, additional whole blood metabolite profiling, and total whole blood ^14C at pre dose (−60 min); 5, 10, 15, 30 and 45 min; and 1, 1.5, 2, 2.5, 3, 4, 6, 8, 12, 16, 24, 36, 48, 72, 96, 120, 144, 168, 192, 216 and 240 h after dosing. Blood samples were taken via an indwelling IV catheter or by direct venipuncture into designated blood collection tubes, with K2 EDTA used as an anticoagulant. Study samples were diluted immediately after blood collection, at a ratio of 1:4 using prechilled 30% acetonitrile, then separated into storage tubes and immediately frozen at −80°C for shipment to the analytical laboratory. At the laboratory, extraction of ^14C-zalunfiban from whole blood was achieved by repeated microcentrifugation, vortex mixing, and harvesting to collect analytes (see Metabolite profiling and excretion for more details).\nZalunfiban and M1 whole blood concentrations were measured using a validated LC-MS/MS method in compliance with the ICH-M10 guideline. The method utilised a Sciex 5500 mass spectrometer, Shimadzu LC30AD HPLC system, and a Shimadzu AD multiplate autosampler. Mobile phase A (MPA) was 10 mM ammonium acetate with 0.1% ammonium hydroxide and mobile phase B (MPB) was 10 mM ammonium acetate with acetonitrile:ammonium hydroxide. An Acquity UPLC BEH Hilic 1.7 micrometer column (Waters Corporation) was used at a temperature of 50 °C. The column flow rate was 0.4 mL/min and injection volumes were 2.0 microliters. The gradient for analytical pumps was set at 30% MAP and 70% MPB.\nFor whole blood LC-MS/MS the calibration ranges were 5.00–500.00 ng/mL for zalunfiban and 25.00–2500.00 ng/mL for M1. Zalunfiban and M1 sample concentrations below 5 ng/mL and 25 ng/mL, respectively, were reported as below the lower limit of quantification (<LLOQ).\nZalunfiban and whole blood radioactivity concentrations were used to calculate PK parameters using standard non-compartmental analysis (NCA) methods using Phoenix WinNonlin software (Phoenix, Princeton, NJ). […]", "key": {"[1]": {"conditions": "geometric mean, n=8, single SC 9.5 mg"}, "[2]": {"conditions": "sc, 9.5 mg, geometric mean, n=8, single SC 9.5 mg"}, "[3]": {"conditions": "sc, 9.5 mg, mean, n=8, single SC 9.5 mg"}, "[4]": {"conditions": "sc, 9.5 mg, median, n=8, single SC 9.5 mg"}}, "note": "Read-outs that look alike come from different tables or passages of the source.", "data": [{"molecule": "NCC(=O)Nc1cncc(-c2nn3c(=O)cc(N4CCNCC4)nc3s2)c1", "note": "[Zalunfiban, 2-amino-N-{5-[5-oxo-7-(piperazin-1-yl)-5H-[1,3,4]thia-diazolo[3,2-a]pyrimidin-2-yl]pyridin-3-yl}acetamide]", "values": [{"measurement": "Time of last measurable whole blood zalunfiban concentration", "setting": "all participants", "result": "≤ 4", "unit": "h"}, {"measurement": "CL/F, whole blood zalunfiban", "setting": "[1]", "result": 80.7, "unit": "L/h"}, {"measurement": "tlast, whole blood zalunfiban", "setting": "[1]", "result": 3.4, "unit": "h"}, {"measurement": "Cmax", "setting": "[2]", "result": 94.6, "unit": "ng/mL"}, {"measurement": "Tmax", "setting": "[2]", "result": 15, "unit": "min"}, {"measurement": "AUC(0-inf)", "setting": "[2]", "result": 116, "unit": "ng·h/mL"}, {"measurement": "AUC(0-t)", "setting": "[2]", "result": 107, "unit": "ng·h/mL"}, {"measurement": "k el", "setting": "[2]", "result": 0.00021, "unit": "s⁻¹"}, {"measurement": "Vd/F", "setting": "[2]", "result": 107, "unit": "L"}, {"measurement": "half-life", "setting": "[2]", "result": 55.2, "unit": "min"}, {"measurement": "half-life", "setting": "sc, 9.5 mg, mean terminal half-life, n=8, single SC 9.5 mg", "result": "~60", "unit": "min"}, {"measurement": "Tmax", "setting": "[3]", "result": 15.6, "unit": "min"}, {"measurement": "Cmax", "setting": "sc, 9.5 mg, mean, n=8, single SC 9.5 mg ^14C-zalunfiban", "result": 95.2, "unit": "ng/mL"}, {"measurement": "AUC(0-inf)", "setting": "[3]", "result": 118, "unit": "ng·h/mL"}, {"measurement": "AUC(0-t)", "setting": "[3]", "result": 109, "unit": "ng·h/mL"}, {"measurement": "k el", "setting": "[3]", "result": 0.000218, "unit": "s⁻¹"}, {"measurement": "Vd/F", "setting": "[3]", "result": 114, "unit": "L"}, {"measurement": "Cmax", "setting": "[4]", "result": 96.9, "unit": "ng/mL"}, {"measurement": "Tmax", "setting": "[4]", "result": "~15", "unit": "min"}, {"measurement": "AUC(0-inf)", "setting": "[4]", "result": 123, "unit": "ng·h/mL"}, {"measurement": "AUC(0-t)", "setting": "[4]", "result": 114, "unit": "ng·h/mL"}, {"measurement": "k el", "setting": "[4]", "result": 0.000229, "unit": "s⁻¹"}, {"measurement": "half-life", "setting": "[4]", "result": 50.4, "unit": "min"}, {"measurement": "Tmax", "setting": "subcutaneous, 9.5 mg, median", "result": 15, "unit": "min"}, {"measurement": "Vd/F", "setting": "median, n=8, single SC 9.5 mg", "result": 96.6, "unit": "L"}, {"measurement": "CL/F, whole blood zalunfiban", "setting": "mean, n=8, single SC 9.5 mg", "result": 81.8, "unit": "L/h"}, {"measurement": "tlast, whole blood zalunfiban", "setting": "mean, n=8, single SC 9.5 mg", "result": 3.4, "unit": "h"}, {"measurement": "CL/F, whole blood zalunfiban", "setting": "median, n=8, single SC 9.5 mg", "result": 76.3, "unit": "L/h"}, {"measurement": "tlast, whole blood zalunfiban", "setting": "median, n=8, single SC 9.5 mg", "result": 3.5, "unit": "h"}]}]}
